Assay results taken from patent US8921376B2, “Pyrrolopyridines useful as inhibitors of protein kinase” (Vertex Pharmaceuticals Incorporated, priority 2005, dated 2014).
pKi: −log10 of the molar value.

Legend:
Type in all cases: biochemical
ROCK I = ROCK I (Homo sapiens, UniProt Q13464); test: ROCK-I inhibition assay (radioactive enzyme assay, MBP substrate)
Method in brief: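 Human ROCK at 5 nM phosphorylated 27 μM myelin basic protein with 13 μM [γ-33P]ATP (final) in HEPES pH 7.5, MgCl2, NaCl, DTT and 1.5% DMSO. Reactions ran 2 h at room temperature before TCA quench and filter-plate scintillation counting. After background subtraction, data were fit to give Ki(app).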

JAK3 = molecular target: T1, JAK3 (Homo sapiens, UniProt P52333); test: JAK3 inhibition assay (33P incorporation into poly(Glu)4Tyr)
T1 sequence (P52333 1-1124): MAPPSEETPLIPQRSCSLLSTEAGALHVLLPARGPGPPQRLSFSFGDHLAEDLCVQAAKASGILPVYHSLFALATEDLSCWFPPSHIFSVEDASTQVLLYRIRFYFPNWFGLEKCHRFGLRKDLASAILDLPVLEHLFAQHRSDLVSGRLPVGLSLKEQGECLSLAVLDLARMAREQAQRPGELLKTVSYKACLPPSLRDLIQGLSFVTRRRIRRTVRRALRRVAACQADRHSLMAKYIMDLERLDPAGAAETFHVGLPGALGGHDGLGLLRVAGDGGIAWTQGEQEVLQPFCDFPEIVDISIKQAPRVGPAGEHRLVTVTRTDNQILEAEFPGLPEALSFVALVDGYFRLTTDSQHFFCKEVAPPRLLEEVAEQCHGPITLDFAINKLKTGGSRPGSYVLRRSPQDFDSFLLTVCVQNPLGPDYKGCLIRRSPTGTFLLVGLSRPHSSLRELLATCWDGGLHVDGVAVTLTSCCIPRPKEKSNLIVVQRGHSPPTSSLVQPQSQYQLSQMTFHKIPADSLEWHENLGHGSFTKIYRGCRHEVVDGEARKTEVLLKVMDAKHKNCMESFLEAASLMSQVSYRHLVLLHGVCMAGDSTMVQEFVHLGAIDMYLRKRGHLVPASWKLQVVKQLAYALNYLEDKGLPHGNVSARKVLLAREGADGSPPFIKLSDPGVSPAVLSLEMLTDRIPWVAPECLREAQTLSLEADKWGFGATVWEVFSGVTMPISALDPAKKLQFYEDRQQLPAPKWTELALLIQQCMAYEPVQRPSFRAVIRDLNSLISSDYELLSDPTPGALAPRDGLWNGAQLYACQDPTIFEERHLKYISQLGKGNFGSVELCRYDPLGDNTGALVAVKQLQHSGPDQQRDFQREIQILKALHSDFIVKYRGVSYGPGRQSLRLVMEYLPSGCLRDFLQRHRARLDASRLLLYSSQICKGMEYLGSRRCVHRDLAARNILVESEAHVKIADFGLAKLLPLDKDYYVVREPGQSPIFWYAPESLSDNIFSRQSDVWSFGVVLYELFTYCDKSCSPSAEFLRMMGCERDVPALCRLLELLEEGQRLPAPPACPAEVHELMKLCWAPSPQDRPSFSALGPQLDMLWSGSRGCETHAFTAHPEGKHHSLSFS
Method in brief: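 Human JAK3 at 1 nM phosphorylated 1 μM poly(Glu)4Tyr using 5 μM [33P]ATP in HEPES pH 7.4 buffer with MgCl2, DTT and BSA. Reactions ran 20 min at 25° C. and were stopped with TCA. 33P incorporation was measured by scintillation after glass-fiber filter capture.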

JAK2 = JAK2 (Homo sapiens, UniProt O60674); test: JAK2 inhibition assay (as Example 3 with JAK-2 enzyme)
Method in brief: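 Radiometric JAK2 kinase assay: poly(Glu)4Tyr substrate at final 15 μM, ATP at final 12 μM with [33P]; buffer 100 mM HEPES pH 7.4, 1 mM DTT, 10 mM MgCl2, 25 mM NaCl, 0.01% BSA. 20 min at 25 °C, TCA-stopped, 33P incorporation counted after filter capture.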

[1] = Table 6, enzyme inhibition data (Ki)
[2] = enzyme inhibition, Ki(app), Table 5

Sequence of JAK2 (O60674 whole entry): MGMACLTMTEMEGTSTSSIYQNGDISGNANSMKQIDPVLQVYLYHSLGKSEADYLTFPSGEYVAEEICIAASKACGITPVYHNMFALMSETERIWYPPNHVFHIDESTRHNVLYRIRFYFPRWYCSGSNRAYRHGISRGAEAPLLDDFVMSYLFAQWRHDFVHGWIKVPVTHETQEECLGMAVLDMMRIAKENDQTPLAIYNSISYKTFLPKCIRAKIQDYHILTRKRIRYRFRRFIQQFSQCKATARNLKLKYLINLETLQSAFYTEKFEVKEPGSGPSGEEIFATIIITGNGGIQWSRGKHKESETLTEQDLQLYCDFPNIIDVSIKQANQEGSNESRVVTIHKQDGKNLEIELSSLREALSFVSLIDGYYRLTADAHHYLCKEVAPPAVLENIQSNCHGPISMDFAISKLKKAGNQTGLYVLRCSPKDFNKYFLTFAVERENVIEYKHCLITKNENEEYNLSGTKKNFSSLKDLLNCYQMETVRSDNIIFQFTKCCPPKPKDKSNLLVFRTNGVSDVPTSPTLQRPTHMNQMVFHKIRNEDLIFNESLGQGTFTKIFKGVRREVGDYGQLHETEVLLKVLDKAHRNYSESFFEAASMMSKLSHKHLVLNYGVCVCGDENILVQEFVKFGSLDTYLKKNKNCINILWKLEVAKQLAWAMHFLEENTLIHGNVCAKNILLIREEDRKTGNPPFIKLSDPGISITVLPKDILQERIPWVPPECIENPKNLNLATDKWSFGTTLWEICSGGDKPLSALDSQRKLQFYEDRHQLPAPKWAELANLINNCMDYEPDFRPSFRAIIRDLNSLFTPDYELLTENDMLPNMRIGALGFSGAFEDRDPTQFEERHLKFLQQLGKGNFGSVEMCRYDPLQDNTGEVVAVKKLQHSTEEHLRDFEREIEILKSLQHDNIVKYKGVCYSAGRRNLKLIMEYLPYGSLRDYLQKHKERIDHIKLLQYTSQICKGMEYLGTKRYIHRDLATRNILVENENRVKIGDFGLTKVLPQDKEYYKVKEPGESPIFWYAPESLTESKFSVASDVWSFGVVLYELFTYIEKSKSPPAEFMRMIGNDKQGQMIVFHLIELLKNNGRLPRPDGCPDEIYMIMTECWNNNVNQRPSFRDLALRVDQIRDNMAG
Sequence of ROCK I (Q13464 whole entry): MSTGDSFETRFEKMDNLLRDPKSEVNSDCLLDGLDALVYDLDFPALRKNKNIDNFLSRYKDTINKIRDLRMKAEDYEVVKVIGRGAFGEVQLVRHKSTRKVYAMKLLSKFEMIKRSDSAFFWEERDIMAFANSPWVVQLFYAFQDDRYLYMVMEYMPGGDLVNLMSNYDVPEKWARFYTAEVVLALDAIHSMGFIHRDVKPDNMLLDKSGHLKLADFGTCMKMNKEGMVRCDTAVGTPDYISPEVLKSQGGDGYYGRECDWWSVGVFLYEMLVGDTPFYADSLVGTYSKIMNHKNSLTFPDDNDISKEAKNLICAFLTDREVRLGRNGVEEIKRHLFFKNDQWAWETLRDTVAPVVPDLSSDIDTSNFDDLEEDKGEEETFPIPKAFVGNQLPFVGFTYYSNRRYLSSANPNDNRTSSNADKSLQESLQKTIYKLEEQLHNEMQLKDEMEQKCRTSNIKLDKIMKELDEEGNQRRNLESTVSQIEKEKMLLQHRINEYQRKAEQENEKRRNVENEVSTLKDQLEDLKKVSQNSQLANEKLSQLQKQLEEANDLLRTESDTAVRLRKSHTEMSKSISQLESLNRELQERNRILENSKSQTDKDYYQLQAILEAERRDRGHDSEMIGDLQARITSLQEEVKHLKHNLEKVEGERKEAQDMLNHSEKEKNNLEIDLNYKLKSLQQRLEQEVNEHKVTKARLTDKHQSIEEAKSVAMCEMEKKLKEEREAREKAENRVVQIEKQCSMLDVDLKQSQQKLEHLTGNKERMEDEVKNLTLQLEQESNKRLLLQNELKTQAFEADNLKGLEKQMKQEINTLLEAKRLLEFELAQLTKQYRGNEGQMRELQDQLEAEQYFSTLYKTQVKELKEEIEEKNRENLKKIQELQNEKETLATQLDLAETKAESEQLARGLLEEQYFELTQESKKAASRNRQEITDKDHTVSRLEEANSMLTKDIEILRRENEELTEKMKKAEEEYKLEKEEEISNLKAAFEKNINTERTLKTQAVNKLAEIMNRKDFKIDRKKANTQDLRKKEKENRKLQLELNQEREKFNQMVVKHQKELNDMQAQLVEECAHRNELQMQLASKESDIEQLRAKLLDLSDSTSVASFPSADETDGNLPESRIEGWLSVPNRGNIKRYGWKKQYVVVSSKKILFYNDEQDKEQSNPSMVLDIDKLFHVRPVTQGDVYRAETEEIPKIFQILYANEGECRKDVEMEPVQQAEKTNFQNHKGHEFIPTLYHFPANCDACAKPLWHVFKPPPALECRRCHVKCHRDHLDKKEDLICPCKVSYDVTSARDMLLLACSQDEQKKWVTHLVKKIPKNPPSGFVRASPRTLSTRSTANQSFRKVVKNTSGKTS

Structure (SMILES) | pKi (ROCK I; [1]) | pKi (JAK3; [1]) | pKi (JAK2; [1]) | pKi (ROCK I; [2]) | pKi (JAK3; enzyme inhibition, Table 5) | pKi (JAK2; enzyme inhibition, Table 5)
O=C(NCC(F)(F)F)[C@H]1CCCCN1c1ccnc(-c2ccnc3[nH]ccc23)n1 [compound 215] | < 5.40 | > 6.30 | 5.30 to 6.30 |  |  | 
O=C(NCC(F)(F)F)c1ccc(-c2ccnc3[nH]ccc23)cc1 [compound 269] | > 6.30 | > 6.30 | > 6.30 |  |  | 
O=S(=O)(C1CC1)N1CC[C@H](Nc2c(Cl)cnc3[nH]ccc23)C1 [compound 179] | < 5.40 | > 6.30 | > 6.30 |  |  | 
c1cc(-c2ccnc3[nH]ccc23)nc(N2CCc3ccccc3C2)c1 [compound 38, 2-(6-(1H-Pyrrolo[2,3-b]pyridin-4-yl)pyridin-2-yl)-1,2,3,4-tetrahydroisoquinoline] |  |  |  | 5.30 to 6.30 | 5.30 to 6.30 | 5.30 to 6.30
N#CCCN(CC1CC1)C(=O)c1cc(-c2c(F)cnc3[nH]ccc23)c[nH]1 [compound 398] | > 6.30 | > 6.30 | > 6.30 |  |  | 
CCCN(CC1CC1)C(=O)c1cc(-c2ccnc3[nH]ccc23)c[nH]1 [compound 301] | > 6.30 | > 6.30 | > 6.30 |  |  | 
Clc1ccc(-c2ccnc3[nH]ccc23)c(Cl)c1 [compound 210] | > 6.30 | 5.30 to 6.30 | 5.30 to 6.30 |  |  | 
C=CCN(CC=C)C(=O)c1ccc(-c2ccnc3[nH]ccc23)s1 [compound 315] | > 6.30 | > 6.30 | > 6.30 |  |  | 
CCCCN(CC#N)C(=O)c1cc(-c2c(Cl)cnc3[nH]ccc23)c[nH]1 [compound 332] | 5.30 to 6.30 | > 6.30 | > 6.30 |  |  | 
O=C(NCCC(F)(F)F)c1ccc(-c2ccnc3[nH]ccc23)cc1 [compound 268] | > 6.30 | > 6.30 | > 6.30 |  |  | 
O=S(=O)(C1CC1)N1CCCC(Nc2c(Cl)cnc3[nH]ccc23)C1 (stereo not drawn) [compound 181] | 5.30 to 6.30 | > 6.30 | > 6.30 |  |  | 
Clc1cnc2[nH]ccc2c1NC1CCCC1 [compound 127, 5-chloro-N-cyclopentyl-1H-pyrrolo[2,3-b]pyridin-4-amine] |  |  |  | > 6.30 | > 6.30 | > 6.30
COCCN(CCOC)C(=O)c1ccc(-c2ccnc3[nH]ccc23)s1 [compound 324] | > 6.30 | > 6.30 | > 6.30 |  |  | 
O=C(c1csc(-c2ccnc3[nH]ccc23)n1)N(CC1CC1)CC(F)(F)F [compound 406] | > 6.30 | > 6.30 | > 6.30 |  |  | 
CN1CCN(Cc2cccc(-c3ccnc4[nH]ccc34)c2)CC1 [compound 89, 4-[3-(4-Methyl-piperazin-1-ylmethyl)-phenyl]-1H-pyrrolo[2,3-b]pyridine] |  |  |  | 5.30 to 6.30 | 5.30 to 6.30 | 5.30 to 6.30
Nc1cccc(-c2ccnc3[nH]ccc23)c1 [compound 114, 3-(1H-Pyrrolo[2,3-b]pyridin-4-yl)-phenylamine] |  |  |  | > 6.30 | 5.30 to 6.30 | 5.30 to 6.30
CC(C)CN(C)C(=O)c1ccc(-c2ccnc3[nH]ccc23)s1 [compound 326] | > 6.30 | > 6.30 | > 6.30 |  |  | 
Clc1cnc2[nH]ccc2c1NC1CCCCC1 [compound 126, 5-chloro-N-cyclohexyl-1H-pyrrolo[2,3-b]pyridin-4-amine] |  |  |  | > 6.30 | > 6.30 | > 6.30
Clc1cnc2[nH]ccc2c1-c1cccc(N2CCCC2)n1 [compound 79, 5-Chloro-4-(6-(pyrrolidin-1-yl)pyridine-2-yl)-1H-pyrrolo[2,3-b]pyridine] |  |  |  | 5.30 to 6.30 | 5.30 to 6.30 | 5.30 to 6.30
Cc1cc(F)ccc1-c1ccnc2[nH]ccc12 [compound 243] | 5.30 to 6.30 | 5.30 to 6.30 | < 5.30 |  |  | 
CC(C)(Nc1nc(-c2ccnc3[nH]ccc23)ncc1F)C(=O)NCC(F)(F)F [compound 131] |  |  |  | 5.30 to 6.30 | > 6.30 | 5.30 to 6.30
CCNC(=O)c1cccc(-c2ccnc3[nH]ccc23)c1 [compound 255] | 5.30 to 6.30 | 5.30 to 6.30 | 5.30 to 6.30 |  |  | 
